Measured values published in PubChem BioAssay (NCI).
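96-well plates; 48 h exposure; 5 concentrations. Endpoints by linear interpolation between flanking doses. Not reached: highest tested concentration assigned. GI50 = concentration required for 50% inhibition of growth. At the TGI there is no net growth.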

Experiments:
Assay in all cases: NCI anticancer screen, dose series, 48 h
[1] = tested on: SNB-19 CNS
[2] = tested on: SK-OV-3 ovarian
[3] = tested on: T-47D breast
[4] = tested on: NCI-H460 lung
[5] = tested on: UO-31 renal
[6] = tested on: SK-MEL-5 melanoma
[7] = tested on: MALME-3M melanoma
[8] = tested on: BT-549 breast
[9] = tested on: DU-145 prostate
[10] = tested on: SR leukemia
[11] = tested on: NCI-H522 lung
[12] = tested on: MCF7 breast
[13] = tested on: OVCAR-4 ovarian
[14] = tested on: SF-539 CNS
[15] = tested on: SN12C renal
[16] = tested on: MOLT-4 leukemia
[17] = tested on: KM12 colon
[18] = tested on: MDA-MB-231 breast
[19] = tested on: ACHN renal
[20] = tested on: SK-MEL-2 melanoma
[21] = tested on: NCI/ADR-RES ovarian
[22] = tested on: SW-620 colon
[23] = tested on: SK-MEL-28 melanoma
[24] = tested on: UACC-62 melanoma
[25] = tested on: CAKI-1 renal
[26] = tested on: M14 melanoma
[27] = tested on: TK-10 renal
[28] = tested on: HOP-62 NSCLC
[29] = tested on: LOX IMVI melanoma
[30] = tested on: PC-3 prostate
[31] = tested on: OVCAR-3 ovarian
[32] = tested on: OVCAR-5 ovarian
[33] = tested on: RPMI-8226 leukemia
[34] = tested on: HL-60(TB) leukemia
[35] = tested on: MDA-MB-435
[36] = tested on: A549 NSCLC
[37] = tested on: K-562 leukemia
[38] = tested on: HS 578T breast
[39] = tested on: RXF 393 renal
[40] = tested on: OVCAR-8 ovarian
[41] = tested on: NCI-H23 lung
[42] = tested on: EKVX NSCLC
[43] = tested on: SF-268 CNS
[44] = tested on: HT29 colon
[45] = tested on: NCI-H226 lung
[46] = tested on: HOP-92 NSCLC
[47] = tested on: CCRF-CEM leukemia
[48] = tested on: SNB-75 CNS
[49] = tested on: U251 CNS
[50] = tested on: 786-0 renal
[51] = tested on: COLO 205 colon
[52] = tested on: A498 renal
[53] = tested on: SF-295 CNS
[54] = tested on: UACC-257 melanoma
[55] = tested on: HCC-2998 colon
[56] = tested on: IGROV1 ovarian
[57] = tested on: HCT-15 colon
[58] = tested on: HCT-116 colon

What does the source list for `COC(=O)Nc1nc2ccc(Oc3ccc(NC(=O)Nc4cc(C(F)(F)F)ccc4F)cc3)cc2s1`?
GI50 [1]: > 25 µM; TGI [1]: > 25 µM; GI50 [2]: > 25 µM; TGI [2]: > 25 µM; GI50 [3]: > 18 µM; TGI [3]: > 25 µM; GI50 [4]: 10.2 µM; TGI [4]: > 25 µM; GI50 [5]: > 25 µM; TGI [5]: > 25 µM; GI50 [6]: > 25 µM; TGI [6]: > 25 µM; GI50 [7]: 0.343 µM; TGI [7]: > 25 µM; GI50 [8]: > 25 µM; TGI [8]: > 25 µM; GI50 [9]: 10.6 µM; TGI [9]: > 25 µM; GI50 [10]: 5.66 µM; TGI [10]: > 25 µM; GI50 [11]: > 25 µM; TGI [11]: > 25 µM; GI50 [12]: > 19.6 µM; TGI [12]: > 25 µM; GI50 [13]: 7.24 µM; TGI [13]: > 20.2 µM; GI50 [14]: > 25 µM; TGI [14]: > 25 µM; GI50 [15]: > 17.3 µM; TGI [15]: > 25 µM; GI50 [16]: > 25 µM; TGI [16]: > 25 µM; GI50 [17]: 0.0859 µM; TGI [17]: > 25 µM; GI50 [18]: 9.05 µM; TGI [18]: > 25 µM; GI50 [19]: > 25 µM; TGI [19]: > 25 µM; GI50 [20]: > 5.02 µM; TGI [20]: > 25 µM; GI50 [21]: 14.5 µM; TGI [21]: > 25 µM; GI50 [22]: 9.85 µM; TGI [22]: > 25 µM; GI50 [23]: 13.9 µM; TGI [23]: > 25 µM; GI50 [24]: 3.9 µM; TGI [24]: > 25 µM; GI50 [25]: > 25 µM; TGI [25]: > 25 µM; GI50 [26]: 2.83 µM; TGI [26]: > 25 µM; GI50 [27]: > 25 µM; TGI [27]: > 25 µM; GI50 [28]: 16.7 µM; TGI [28]: > 25 µM; GI50 [29]: 3.65 µM; TGI [29]: > 25 µM; GI50 [30]: 11.5 µM; TGI [30]: > 25 µM; GI50 [31]: > 23.9 µM; TGI [31]: > 25 µM; GI50 [32]: > 25 µM; TGI [32]: > 25 µM; GI50 [33]: > 25 µM; TGI [33]: > 25 µM; GI50 [34]: > 13.5 µM; TGI [34]: > 25 µM; GI50 [35]: 7.37 µM; TGI [35]: > 25 µM; GI50 [36]: 15 µM; TGI [36]: > 25 µM; GI50 [37]: 0.0202 µM; TGI [37]: > 25 µM; GI50 [38]: 6.21 µM; TGI [38]: > 25 µM; GI50 [39]: > 25 µM; TGI [39]: > 25 µM; GI50 [40]: 8.67 µM; TGI [40]: > 25 µM; GI50 [41]: 9.25 µM; TGI [41]: > 25 µM; GI50 [42]: > 14.7 µM; TGI [42]: > 25 µM; GI50 [43]: 8.5 µM; TGI [43]: > 25 µM; GI50 [44]: 12.7 µM; TGI [44]: > 25 µM; GI50 [45]: > 25 µM; TGI [45]: > 25 µM; GI50 [46]: 0.288 µM; TGI [46]: > 25 µM; GI50 [47]: > 23.7 µM; TGI [47]: > 25 µM; GI50 [48]: 6.76 µM; TGI [48]: > 23.8 µM; GI50 [49]: 13.6 µM; TGI [49]: > 25 µM; GI50 [50]: > 25 µM; TGI [50]: > 25 µM; GI50 [51]: > 25 µM; TGI [51]: > 25 µM; TGI [52]: > 25 µM; GI50 [53]: 24.8 µM; TGI [53]: > 25 µM; GI50 [54]: > 25 µM; TGI [54]: > 25 µM; GI50 [55]: > 25 µM; TGI [55]: > 25 µM; GI50 [56]: > 25 µM; TGI [56]: > 25 µM; GI50 [57]: 24.3 µM; TGI [57]: > 25 µM; GI50 [58]: 8.8 µM; TGI [58]: > 25 µM
